The numbers were not newly measured in patent US20260144769A1, “4-PHENYLBUTYRATE RESTORED GABA UPTAKE AND REDUCED SEIZURES IN SLC6A1 VARIANT-MEDIATED DISORDERS” (Vanderbilt University, priority 2022, published 2026), which cites them from elsewhere.

The conditions of this data set: SLC6A1 mutation mediated disorders; cited from earlier work.

For the compound `CCCC(CCC)C(=O)O` [Valproic acid], the cognition entry is “could not improve cognition” and the seizure control entry is on record as “control seizures”.
